Results published in PMC6179058, “Design, synthesis, and biological evaluation of novel iso-flavones derivatives as H3R antagonists” (Journal of Enzyme Inhibition and Medicinal Chemistry, 2018).

Target: T1, human H3R (histamine receptor 3) (Homo sapiens, UniProt Q9Y5N1)
T1 construct: gene HRH3; human H3R fused via TEV protease site to Gal4-VP16 transcription factor; stably expressed in H3-bla U2OS cells (Invitrogen) with beta-arrestin/TEV protease fusion and UAS beta-lactamase reporter
Test: beta-arrestin/TEV beta-lactamase FRET reporter assay, antagonist mode
Format: cell-based
Conditions: read-out: Inhibit rate (%) at 10 μM
From the text: beta-arrestin/TEV beta-lactamase FRET reporter assay, antagonist mode on human H3R (histamine receptor 3)

T1 sequence (Q9Y5N1 whole entry, the tested form may be a part): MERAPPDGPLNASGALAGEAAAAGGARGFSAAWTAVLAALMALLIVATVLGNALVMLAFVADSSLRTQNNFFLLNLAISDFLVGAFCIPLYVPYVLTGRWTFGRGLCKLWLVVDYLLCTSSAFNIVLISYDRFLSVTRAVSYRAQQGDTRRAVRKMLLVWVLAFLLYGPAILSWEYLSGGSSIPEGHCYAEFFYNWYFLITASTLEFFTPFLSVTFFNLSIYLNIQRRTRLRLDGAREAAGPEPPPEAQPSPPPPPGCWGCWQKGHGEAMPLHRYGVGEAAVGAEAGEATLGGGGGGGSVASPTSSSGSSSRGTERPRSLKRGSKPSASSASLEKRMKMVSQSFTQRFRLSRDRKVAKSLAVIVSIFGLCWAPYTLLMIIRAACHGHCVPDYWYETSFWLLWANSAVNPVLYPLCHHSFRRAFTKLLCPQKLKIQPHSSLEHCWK

Row | inhibition at 10 µM [%] | Structure (SMILES)
1 | 18.7 | O=c1c(-c2ccc(O)cc2)coc2c(CN3CCCC3)c(O)ccc12 [2f, 7-hydroxy-3-(4-hydroxyphenyl)-8-(pyrrolidin-1-ylmethyl)-4H-chromen-4-one]
2 | 14.6 | COc1ccc(-c2coc3c(CN4CCCC4)c(O)ccc3c2=O)cc1 [2m, 7-hydroxy-3-(4-methoxyphenyl)-8-(pyrrolidin-1-ylmethyl)-4H-chromen-4-one]
